# Source: US7491794B2, “Macrocyclic compounds as inhibitors of viral replication” (Intermune, Inc., priority 2003, dated 2009)
# Like-named read-outs stand apart in the source and are kept apart here.
# Tests used:
# [1] = tested on: HCV sub-genomic replicon, GS4.3; test: Quantitation by ELISA of NPTII in the HCV sub-genomic replicon, GS4.3, Section B; type: cell-based; settings: Hepatitis C virus, read-out: Replicon EC50
# From the text: Quantitation by ELISA of the Selectable Marker Protein, Neomycin Phosphotransferase II (NPTII) in the HCV Sub-Genomic Replicon, GS4.3
# The HCV sub-genomic replicon (1377/NS3-3′, accession No. AJ242652), stably maintained in HuH-7 hepatoma cells, was created by Lohmann et al. Science 285: 110-113 (1999). The replicon-containing cell culture, designated GS4.3, was obtained from Dr. Christoph Seeger of the Institute for Cancer Research, Fox Chase Cancer Center, Philadelphia, Pa.
# GS4.3 cells were maintained at 37° C., 5% CO2, in DMEM (Gibco 11965-092) supplemented with L-glutamine 200 mM (100×) (Gibco25030-081), non-essential amino acids (NEAA)(Biowhittaker 13-114E), heat-inactivated (HI) Fetal Bovine Serum(FBS)(Hyclone SH3007.03) and 750 μg/ml geneticin (G418)(Gibco 10131-035). Cells were sub-divided 1:3 or 4 every 2-3 days.
# 24 hours prior to the assay, GS4.3 cells were collected, counted, and plated in 96-well plates (Costar 3585) at 7500 cells/well in 100 μl standard maintenance medium (above) and incubated in the conditions above. To initiate the assay, culture medium was removed, cells were washed once with PBS (Gibco 10010-023) and 90 μl Assay Medium (DMEM, L-glutamine, NEAA, 10% HI FBS, no G418) was added. Inhibitors were made as a 10× stock in Assay Medium, (3-fold dilutions from 10 μM to […] final concentration, final DMSO concentration 1%), 10 μl were added to duplicate wells, plates were rocked to mix, and incubated as above for 72 h.
# An NPTII ELISA kit was obtained from AGDIA, Inc. (Compound direct ELISA test system for Neomycin Phosphotransferase II, PSP 73000/4800). Manufacturer's instructions were followed, with some modifications. 10×PEB-1 lysis buffer was made up to include 500 μM PMSF (Sigma P7626, 50 mM stock in isopropanol). After 72 h incubation, cells were washed once with PBS and 150 μl PEB-1 with PMSF was added per well. Plates were agitated vigorously for 15 minutes, room temperature, then frozen at −70° C. Plates were thawed, lysates were mixed thoroughly, and 100 μl were applied to an NPTII Elisa plate. A standard curve was made. Lysate from DMSO-treated control cells was pooled, serially diluted with PEB-1 with PMSF, and applied to duplicate wells of the ELISA plate, in a range of initial lysate amount of 150u1-2.5 ul. In addition, 100 μl buffer alone was applied in duplicate as a blank. Plates were sealed and gently agitated at room temperature for 2 h. Following capture incubation, the plates were washed 5×300 μl with PBS-T (0.5% Tween-20, PBS-T was supplied in the ELISA kit). For detection, a 1× dilution of enzyme conjugate diluent MRS-2 (5×) was made in PBS-T, into which 1:100 dilutions of enzyme conjugates A and B were added, as per instructions. Plates were resealed, and incubated with agitation, covered, room temperature, for 2 h. The washing was then repeated and 100 μl of room temperature TMB substrate was added. After approximately 30 minutes incubation (room temperature, agitation, covered), the reaction was stopped with 50 μl 3M sulfuric acid. Plates were read at 450 nm on a Molecular Devices Versamax plate reader.
# Inhibitor effect was expressed as a percentage of DMSO-treated control signal, and inhibition curves were calculated using a 4-parameter equation: y=A+((B−A)/(1+((C/x)^D))), where C is half-maximal activity or EC50.
# NS3-NS4A protease = molecular target: T1, NS3-NS4A protease (Hepatitis C virus genotype 1a, UniProt P27958); test: NS3-NS4A protease assay (NS3 inhibition assay, RETS1 substrate), Section B; type: biochemical
# T1 construct: Recombinant E. coli or Baculovirus full-length NS3 was diluted to 3.33 μM with assay buffer; made in house; host or cells: E. coli or baculovirus (BV) system
# Method in brief: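 Full-length NS3 (E. coli or baculovirus) precomplexed with excess NS4A-2 peptide, run at 2 nM (E. coli) or 3 nM (BV) NS3; compounds pre-incubated 10 min at room temperature before RETS1 substrate. Fluorescence (ex 335/em 495 nm) read kinetically 30 min; IC50 from four-parameter fit, converted to Ki via Ki=IC50/(1+[S]/Km).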
# T1 sequence (P27958 1027-1657): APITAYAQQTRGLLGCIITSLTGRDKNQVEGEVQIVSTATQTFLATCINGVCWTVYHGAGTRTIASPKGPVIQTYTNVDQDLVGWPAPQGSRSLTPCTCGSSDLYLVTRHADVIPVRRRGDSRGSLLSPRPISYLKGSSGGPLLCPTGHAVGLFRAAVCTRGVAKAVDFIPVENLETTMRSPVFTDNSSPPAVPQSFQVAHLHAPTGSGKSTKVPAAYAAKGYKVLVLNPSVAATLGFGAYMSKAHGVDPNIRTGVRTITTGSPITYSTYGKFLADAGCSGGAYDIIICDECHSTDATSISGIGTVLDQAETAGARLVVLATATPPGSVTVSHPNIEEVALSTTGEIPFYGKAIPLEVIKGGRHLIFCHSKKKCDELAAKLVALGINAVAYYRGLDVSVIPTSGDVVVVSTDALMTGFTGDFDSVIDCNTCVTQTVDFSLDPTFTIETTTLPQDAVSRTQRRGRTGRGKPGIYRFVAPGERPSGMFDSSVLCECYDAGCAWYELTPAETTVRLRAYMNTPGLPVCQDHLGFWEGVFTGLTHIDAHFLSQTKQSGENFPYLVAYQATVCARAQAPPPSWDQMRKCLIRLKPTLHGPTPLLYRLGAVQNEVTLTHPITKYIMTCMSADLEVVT
Compound,"EC50 ([1]; GS4.3 cells, 72 h incubation) [nM]",IC50 (NS3-NS4A protease; read-out: NS3-NS4A IC50) [nM],EC50 ([1]; 72 h) [nM],IC50 (NS3-NS4A protease) [nM]
"CC(C)(C)OC(=O)N[C@H]1CCCCC/C=C\[C@@H]2C[C@@]2(C(=O)O)NC(=O)[C@@H]2C[C@@H](OC(=O)N3CCc4c(F)cccc4C3)CN2C1=O [AR00294384, (1S,4R,6S,14S,18R)-14-tert-Butoxycarbonylamino-18-(5-fluoro-3,4-dihydro-1H-isoquinoline-2-carbonyloxy)-2,15-dioxo-3,16-diaza-tricyclo[14.3.0.0^4,6]nonadec-7-ene-4-carboxylic acid]",< 10000,< 1000,,
"CC(C)(C)OC(=O)N[C@H]1CCCCC/C=C\[C@@H]2C[C@@]2(C(=O)NS(=O)(=O)C2CC2)NC(=O)[C@@H]2C[C@@H](OC(=O)N3CCc4c(F)cccc4C3)CN2C1=O [AR00298996, (1S,4R,6S,14S,18R)-5-Fluoro-3,4-dihydro-1H-isoquinoline-2-carboxylic acid 14-tert-butoxycarbonylamino-4-cyclopropanesulfonylaminocarbonyl-2,15-dioxo-3,16-diaza-tricyclo[14.3.0.0^4,6]nonadec-7-en-18-yl ester]",< 100,< 100,,
"CC(C)(C)OC(=O)N[C@H]1CCCCC/C=C\[C@@H]2C[C@@]2(C(=O)NS(=O)(=O)C2CC2)NC(=O)[C@@H]2C[C@@H](OC(=O)N3CCc4cccc(C(F)(F)F)c4C3)CN2C1=O [AR00298997, (1S,4R,6S,14S,18R)-8-Trifluoromethyl-3,4-dihydro-1H-isoquinoline-2-carboxylic acid 14-tert-butoxycarbonylamino-4-cyclopropanesulfonylaminocarbonyl-2,15-dioxo-3,16-diaza-tricyclo[14.3.0.0^4,6]nonadec-7-en-18-yl ester]",< 100,< 100,,
"CC(C)[C@@H](NC(=O)c1cnccn1)C(=O)N[C@H]1CCCCC/C=C\[C@@H]2C[C@@]2(C(=O)O)NC(=O)[C@@H]2C[C@@H](OC(=O)N3CCc4ccccc4C3)CN2C1=O [AR00301338, (1S,4R,6S,14S,18R)-18-(3,4-Dihydro-1H-isoquinoline-2-carbonyloxy)-14-{3-methyl-2-[(pyrazine-2-carbonyl)-amino]-butyrylamino}-2,15-dioxo-3,16-diaza-tricyclo[14.3.0.0^4,6]nonadec-7-ene-4-carboxylic acid]",,,< 10000,< 100
"CC(C)(C)OC(=O)N[C@H]1CCCCC/C=C\[C@@H]2C[C@@]2(C(=O)O)NC(=O)[C@@H]2C[C@@H](OC(=O)N3CCc4c(N)cccc4C3)CN2C1=O [AR00301745, (1S,4R,6S,14S,18R)-18-(5-Amino-3,4-dihydro-1H-isoquinoline-2-carbonyloxy)-14-tert-butoxycarbonylamino-2,15-dioxo-3,16-diaza-tricyclo[14.3.0.0^4,6]nonadec-7-ene-4-carboxylic acid]",< 10000,< 1000,,
"CC(C)(C)OC(=O)N[C@H]1CCCCC/C=C\[C@@H]2C[C@@]2(C(=O)NS(=O)(=O)C2CC2)NC(=O)[C@@H]2C[C@@H](OC(=O)N3CCc4ccc(Cl)cc4C3)CN2C1=O [AR00301746, (1S,4R,6S,14S,18R)-7-Chloro-3,4-dihydro-1H-isoquinoline-2-carboxylic acid 14-tert-butoxycarbonylamino-4-cyclopropanesulfonylaminocarbonyl-2,15-dioxo-3,16-diaza-tricyclo[14.3.0.0^4,6]nonadec-7-en-18-yl ester]",< 100,< 100,,
"CC(C)(C)OC(=O)N[C@H]1CCCCC/C=C\[C@@H]2C[C@@]2(C(=O)NS(=O)(=O)C2CC2)NC(=O)[C@@H]2C[C@@H](OC(=O)N3CCc4cc(C(F)(F)F)ccc4C3)CN2C1=O [AR00301747, (1S,4R,6S,14S,18R)-6-Trifluoromethyl-3,4-dihydro-1H-isoquinoline-2-carboxylic acid 14-tert-butoxycarbonylamino-4-cyclopropanesulfonylaminocarbonyl-2,15-dioxo-3,16-diaza-tricyclo[14.3.0.0^4,6]nonadec-7-en-18-yl ester]",< 100,< 100,,
"CC(C)(C)OC(=O)N[C@H]1CCCCC/C=C\[C@@H]2C[C@@]2(C(=O)O)NC(=O)[C@@H]2C[C@@H](OC(=O)N3CCc4ccc(N)cc4C3)CN2C1=O [AR00301749, (1S,4R,6S,14S,18R)-18-(7-Amino-3,4-dihydro-1H-isoquinoline-2-carbonyloxy)-14-tert-butoxycarbonylamino-2,15-dioxo-3,16-diaza— tricyclo[14.3.0.0^4,6]nonadec-7-ene-4-carboxylic acid]",< 10000,< 1000,,
"CC(C)(C)OC(=O)N[C@H]1CCCCC/C=C\[C@@H]2C[C@@]2(C(=O)NS(=O)(=O)C2CC2)NC(=O)[C@@H]2C[C@@H](OC(=O)N3CCc4cc(F)ccc4C3)CN2C1=O [AR00301751, (1S,4R,6S,14S,18R)-6-Fluoro-3,4-dihydro-1H-isoquinoline-2-carboxylic acid 14-tert-butoxycarbonylamino-4-cyclopropanesulfonylaminocarbonyl-2,15-dioxo-3,16-diaza-tricyclo[14.3.0.0^4,6]nonadec-7-en-18-yl ester]",< 100,< 100,,
"CC(C)(C)OC(=O)N[C@H]1CCCCC/C=C\[C@@H]2C[C@@]2(C(=O)O)NC(=O)[C@@H]2C[C@@H](OC(=O)N3CCc4nc(Nc5ccccc5)sc4C3)CN2C1=O [AR00304000, (1S,4R,6S,14S,18R)-14-tert-Butoxycarbonylamino-2,15-dioxo-18-(2-phenylamino-6,7-dihydro-4H-thiazolo[5,4-c]pyridine-5-carbonyloxy)-3,16-diaza-tricyclo[14.3.0.0^4,6]nonadec-7-ene-4-carboxylic acid]",< 10000,< 1000,,
"CC(C)(C)OC(=O)N[C@H]1CCCCC/C=C\[C@@H]2C[C@@]2(C(=O)NS(=O)(=O)C2CC2)NC(=O)[C@@H]2C[C@@H](NC(=O)N3Cc4ccccc4C3)CN2C1=O [AR00304008, (1S,4R,6S,14S,18R)-{4-Cyclopropanesulfonylaminocarbonyl-18-[(1,3-dihydro-isoindole-2-carbonyl)-amino]-2,15-dioxo-3,16-diaza-tricyclo[14.3.0.0^4,6]nonadec-7-en-14-yl}-carbamic acid tert-butyl ester]",< 100,< 100,,
"CC(C)(C)OC(=O)N[C@H]1CCCCC/C=C\[C@@H]2C[C@@]2(C(=O)O)NC(=O)[C@@H]2C[C@@H](NC(=S)N3CCc4ccccc4C3)CN2C1=O [AR00304010, (1S,4R,6S,14S,18R)-14-tert-Butoxycarbonylamino-18-[(3,4-dihydro-1H-isoquinoline-2-carbothioyl)-amino]-2,15-dioxo-3,16-diaza-tricyclo[14.3.0.0^4,6]nonadec-7-ene-4-carboxylic acid]",< 10000,< 1000,,
"CC(C)(C)OC(=O)N[C@H]1CCCCC/C=C\[C@@H]2C[C@@]2(C(=O)NS(=O)(=O)C2CC2)NC(=O)[C@@H]2C[C@@H](NC(=S)N3CCc4ccccc4C3)CN2C1=O [AR00304012, (1S,4R,6S,14S,18R)-{4-Cyclopropanesulfonylaminocarbonyl-18-[(3,4-dihydro-1H-isoquinoline-2-carbothioyl)-amino]-2,15-dioxo-3,16-diaza-tricyclo[14.3.0.0^4,6]nonadec-7-en-14-yl}-carbamic acid tert-butyl ester]",< 1000,< 100,,
